Values after ≈ are worked out from the molar mass of the structure shown. Read-outs that look alike come from different tables or passages of the source. Starred links: 1 amine or outer side, 2 acyl side, 3 side chain; linkers in the order of their positions; H or OH if unused. Positions of bridges follow the written chain, without caps; N, C: chain ends. Non-standard residues stand in square brackets, D forms with d. Residues, ends and D or L forms follow the SMILES beside them. X1 = CC(C)CCCCCCCCC[C@H](CC(=O)[*:1])O[*:2]
Assays:
Vibrio harveyi = assay: Antimicrobial test for surfactin (MIC, 96-well broth dilution); assay type: cell-based; conditions: 16 hrs at 37° C., read-out: minimum inhibitory concentration (MIC)
Description: (§1) Escherichia coli DH5α, Vibrio harveyi, Vibrio alginolyticus, Vibrio anguillarum, Vibrio salmonicida, Aeromonas hydrophila and Staphylococcus epidermidis are separately inoculate onto LBA (E. coli DH5α) or TSA (+1.5% NaCl) and incubate at 37° C. for 16 hrs. Scrap off and dissolve the colonies in designated medium. When OD540 is at 1 (the concentration is around 1×10^9 colonies/c.c.), take 500 μl of the bacterial culture and add to 500 μl of LB or TSB (+1.5% NaCl) to make the bacterial concentration at […]; add 130 μl of the bacterial culture to each well of a 96-well plate, the concentration of bacterial culture is 1×10^4.5 colonies/c.c., before addition of 20 μl of chemically synthesized antimicrobial peptides at various concentrations. After 16 hrs of incubation at 37° C., the bacterial culture that is clear indicates the lowest concentration of the antimicrobial peptide, that is, minimum inhibitory concentration (MIC).

Escherichia coli DH5α = assay: as above; assay type: cell-based; conditions: 16 h, E. coli, 16 hrs at 37° C., read-out: minimum inhibitory concentration (MIC)
Description: as §1

Vibrio anguillarum = assay: as above; assay type: cell-based; conditions: 16 hrs at 37° C., read-out: minimum inhibitory concentration (MIC)
Description: as §1

[1] = tested on: Staphylococcus epidermidis; assay: as above; assay type: cell-based; conditions: 16 hrs at 37° C., read-out: minimum inhibitory concentration (MIC)
Description: as §1

Vibrio salmonicida = assay: as above; assay type: cell-based; conditions: 16 hrs at 37° C., read-out: minimum inhibitory concentration (MIC)
Description: as §1

Aeromonas hydrophila = assay: as above; assay type: cell-based; conditions: 16 hrs at 37° C., read-out: minimum inhibitory concentration (MIC)
Description: as §1

Vibrio alginolyticus = assay: as above; assay type: cell-based; conditions: 16 hrs at 37° C., read-out: minimum inhibitory concentration (MIC)
Description: as §1

[2] = Antimicrobial test for surfactin, summary statement over the tested bacteria; assay type: cell-based; conditions: text summary of Table 2, all tested bacteria; read-out: minimum inhibitory concentration (MIC)
Description: as §1

[3] = literature value, test organism not given; cited from earlier work

CC(C)CCCCCCCCC[C@@H]1CC(=O)N[C@@H](CCC(=O)O)C(=O)N[C@@H](CC(C)C)C(=O)N[C@H](CC(C)C)C(=O)N[C@@H](C(C)C)C(=O)N[C@@H](CC(=O)O)C(=O)N[C@H](CC(C)C)C(=O)N[C@@H](CC(C)C)C(=O)O1 [Bacillus subtilis subsp. ATCC21332, surfactin] (EL[dL]VD[dL]L; linker N-C via X1)
MIC (Vibrio harveyi; 16 h): 129 µM (≈ 133 µg/mL) | MIC (Escherichia coli DH5α): 193 µM (≈ 200 µg/mL) | MIC (Vibrio anguillarum; Vibrio anguillarum, 16 h): 129 µM (≈ 133 µg/mL) | MIC ([1]; 16 h): 129 µM (≈ 133 µg/mL) | MIC (Vibrio salmonicida; Aliivibrio salmonicida, 16 h): 129 µM (≈ 133 µg/mL) | MIC (Aeromonas hydrophila; Aeromonas hydrophila, 16 h): 129 µM (≈ 133 µg/mL) | MIC (Vibrio alginolyticus; 16 h): 129 µM (≈ 133 µg/mL)

CC(C)CCCCCCCCC[C@@H]1CC(=O)N[C@@H](CCC(=O)O)C(=O)N[C@@H](CC(C)C)C(=O)N[C@H](CC(C)C)C(=O)N[C@@H](C(C)C)C(=O)N[C@@H](CC(=O)O)C(=O)N[C@H](CC(C)C)C(=O)N[C@@H](CC(C)C)C(=O)O1 [High-yield mutant strain, surfactin] (EL[dL]VD[dL]L; linker N-C via X1)
MIC (Vibrio harveyi): 96.5 µM (≈ 100 µg/mL) | MIC (Vibrio anguillarum): 96.5 µM (≈ 100 µg/mL) | MIC [1]: 96.5 µM (≈ 100 µg/mL) | MIC (Vibrio salmonicida): 96.5 µM (≈ 100 µg/mL) | MIC (Aeromonas hydrophila): 96.5 µM (≈ 100 µg/mL) | MIC (Vibrio alginolyticus): 96.5 µM (≈ 100 µg/mL) | MIC [2]: 96.5 µM (≈ 100 µg/mL)

CC(C)CCCCCCCCC[C@@H]1CC(=O)N[C@@H](CCC(=O)O)C(=O)N[C@@H](CC(C)C)C(=O)N[C@H](CC(C)C)C(=O)N[C@@H](C(C)C)C(=O)N[C@@H](CC(=O)O)C(=O)N[C@H](CC(C)C)C(=O)N[C@@H](CC(C)C)C(=O)O1 [surfactin] (EL[dL]VD[dL]L; linker N-C via X1)
minimum inhibitory concentration (MIC) [3]: 50 µg/mL (≈ 48.2 µM)

Reference: US9689017B2, “Method of semi-solid state fermentation for producing surfactin from a mutant strain of Bacillus subtilis subsp” (priority 2014, dated 2017)
